Data from patent US12121515B2, “Piperidine urea derivatives as soluble epoxide hydrolase inhibitors” (NeuroPn Therapeutics, Inc., priority 2021, dated 2024).

Experiments:
[1] = tested on: MPTP induced Parkinsonism in zebrafish; assay: MPTP induced Parkinsonism in zebrafish, locomotor activity; format: in vivo; details: adult zebrafish, MPTP model; oral in feed pellets; may reflect L-DOPA-induced dyskinesia; FIG. 4
Experimental: The methodology described by Bretaud et al (Neurotoxicol Teratol. 2004 November-December; 26(6), 857-64) was used to study parkinsonism in zebrafish. For MPTP (1-methyl-4-phenyl-1,2,3,6-tetrahydropyridine) induced Parkinsonism, adult zebrafish were injected with 3 μl of 60 μg/g of MPTP as intramuscular injection along the lateral muscles.
Compound B of Formula I or L-DOPA were dosed orally by mixing with the fish feed pellets. Fishes were conditioned to consume three pellets a day. To prepare feed containing 1 ng of Compound B of Formula I, stock of 1 ng/μl Compound B was diluted to 10 μl in Ringer's solution and distributed to 3 fish feed pellets (‘3.3 μl per pellet). Prior to adding Compound B, fish feed pellets were dried at 37° C. for 1 hour to remove moisture. Post addition of Compound B solution and absorption by the pellet, pellets were stored at 4° C. […] Concentration of compounds dosed was controlled by number of pellets and the quantity of compound per pellet. […]
Locomotor Activity: The observation tank was divided into four zones by drawing three vertical lines at equal distances, at a length of 6.25 cm per zone. The number of lines that adult zebrafish crossed over a period of 5 minutes was counted. Fishes were allowed to acclimatize in measurement tanks for a period of 30 minutes before readings were taken. […]

[2] = tested on: MPTP induced toxicity on neuronal cells; assay: MPTP induced Parkinsonism in zebrafish, brain pathology (degenerated neurons in mid brain smear); format: in vivo; details: H&E
Experimental: Fishes were conditioned to consume three pellets a day. […] To prepare fish feed pellets containing L-DOPA 4 μl of 1 ng/μl of L-DOPA stock solution was distributed across 3 fish feed pellets ‘1.3 μl/pellet. Fish were fed, three pellets a day. Concentration of compounds dosed was controlled by number of pellets and the quantity of compound per pellet. Feed pellets without drug but with vehicle were used as placebo or control.
Brain Pathology: Fish were anesthetized with 15° C. water and sacrificed by a cut between the brain and the spinal cord. Brain was dissected and portions of mid brain were removed with a pin and knife. The brain tissue was smeared on a glass slide and stained with Haematoxylin & Eosin respectively for 2 minutes each followed by water washes. Slides were viewed at 45× magnification using Labomed LX 400 microscope. The number of degenerated neurons were counted for three fields per smear. […]

N[C@@H](Cc1ccc(O)c(O)c1)C(=O)O [L-DOPA]
movement behavior on continued treatment (beyond day 3) [1]: heightened movement behavior | brain pathology (brain smear appearance, effect on MPTP induced toxicity on neuronal cells) ([2]; FIG. 5): did not have significant effect | change in neurodegenerative cell number compared to MPTP group ([2]; day 8, FIG. 5): non-significant decrease
